This note sets out measurements from patent publication US20250320213A1, “Nitrogen-Containing Heterocyclic Compounds” (Pfizer Inc., priority 2024, published 2025).

For orientation: pIC50 means the IC50 on a negative log10 scale, so that one unit is a factor of ten. Lower therefore signals a large IC50. Usually pEC50 stands for the negative decadic logarithm of the EC50, by convention in mol/L.

The test system of assay [1] is CCL17 secretion in peripheral human whole blood. In words: Human Whole Blood (HWB) CCL17 TR-FRET Assay (IL-13 stimulated CCL17 secretion). To be noted: Homo sapiens, 48 h, human whole blood, 10 ng/mL IL13, 48 hours. Format: cell-based. The gist of the method:
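Heparin-anticoagulated human blood; cpd 11-pt 3-fold dilution, duplicate, 2 h 37 °C preinc; IL-13 10 ng/mL final, 48 h 37 °C; spin, serum CCL17 by TR-FRET ELISA, 16 h RT, 665/615 ratio; IC50.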
Background: TR-FRET usually uses a lanthanide donor and a delayed reading to cut background.

Another assay addresses T1, STAT6 (Homo sapiens, UniProt P42226).
T1 construct: stably transfected HaCaT keratinocyte cell line, which expresses NanoLuc luciferase reporter gene under the transcriptional control of the STAT6 responsive promoter; endogenous in cells; host or cells: HaCaT keratinocyte reporter cell line (stably transfected with a NanoLuc reporter)
T1 sequence (P42226 1-847): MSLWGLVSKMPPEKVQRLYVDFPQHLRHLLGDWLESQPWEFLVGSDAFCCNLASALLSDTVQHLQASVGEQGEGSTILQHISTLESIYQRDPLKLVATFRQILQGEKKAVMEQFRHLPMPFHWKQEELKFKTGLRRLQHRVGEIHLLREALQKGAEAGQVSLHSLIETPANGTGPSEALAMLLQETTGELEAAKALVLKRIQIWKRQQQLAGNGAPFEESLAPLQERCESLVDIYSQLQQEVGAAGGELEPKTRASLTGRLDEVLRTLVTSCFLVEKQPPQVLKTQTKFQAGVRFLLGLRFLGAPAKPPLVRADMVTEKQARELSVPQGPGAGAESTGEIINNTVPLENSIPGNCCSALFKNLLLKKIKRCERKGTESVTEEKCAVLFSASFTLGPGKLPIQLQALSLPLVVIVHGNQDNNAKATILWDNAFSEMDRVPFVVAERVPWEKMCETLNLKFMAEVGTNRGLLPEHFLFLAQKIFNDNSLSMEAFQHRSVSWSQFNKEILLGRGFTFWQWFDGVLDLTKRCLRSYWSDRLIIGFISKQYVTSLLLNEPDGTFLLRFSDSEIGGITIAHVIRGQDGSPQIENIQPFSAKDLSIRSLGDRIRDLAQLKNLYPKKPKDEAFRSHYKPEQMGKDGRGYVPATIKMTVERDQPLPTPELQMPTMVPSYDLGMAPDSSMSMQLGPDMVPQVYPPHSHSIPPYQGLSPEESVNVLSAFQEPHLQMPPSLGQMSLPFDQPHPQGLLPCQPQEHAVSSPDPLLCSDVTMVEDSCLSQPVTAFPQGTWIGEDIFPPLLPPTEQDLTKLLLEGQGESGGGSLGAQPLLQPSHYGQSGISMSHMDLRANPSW
In words: STAT6 Reporter Luciferase Assay (IL-13 stimulated HaCaT keratinocyte NanoLuc reporter cells). Format: cell-based. The conditions noted are these: IL-13 stimulated HaCaT STAT6 NanoLuc reporter cells; read-out: Reporter EC50. In short, it runs like this: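 Stably transfected HaCaT cells carrying NanoLuc under the STAT6-responsive IL-13Ra2 promoter were pre-treated with compound (11-point, 4-fold series, duplicate) for 2 h at 37 °C, then stimulated with 0.12 nM IL-13 for 4 h. Nano-Glo luminescence was read after 15 min.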

pEC50, pIC50: −log10 of the molar value.

Regarding `CC(C)n1nc(C(=O)NCc2ccc(NC(=O)N3CC4(CN(C)C4)C3)c(F)c2)c2c1[C@@H](C)CN(c1ccc(C(=O)N(C)C)cn1)C2` [Example 604, (S)-5-(5-(dimethylcarbamoyl)pyridin-2-yl)-N-(3-fluoro-4-(6-methyl-2,6-diazaspiro[3.3]heptane-2-carboxamido)benzyl)-1-isopropyl-7-methyl-4,5,6,7-tetrahydro-1H-pyrazolo[4,3-c]pyridine-3-carboxamide], the negative logarithm of the IC50 (pIC50) in assay [1] was 7.54. The pEC50 at STAT6 was 8.40.

`CNC(=O)c1ccc(CNC(=O)c2nn(C(C)C)c3c2CN(c2ccc(C(=O)N(C)C)cc2)C[C@@H]3C)cc1` [Example 605, (S)-5-(4-(dimethylcarbamoyl)phenyl)-1-isopropyl-7-methyl-N-(4-(methylcarbamoyl)benzyl)-4,5,6,7-tetrahydro-1H-pyrazolo[4,3-c]pyridine-3-carboxamide] showed a pIC50 in assay [1] of 7.43. For the same molecule, the negative logarithm of the EC50 (pEC50) at STAT6 was 8.40.

`CC(C)n1nc(C(=O)NCc2ccc(NC(=O)N3CCN(C)CC3)c(F)c2)c2c1[C@@H](C)CN(c1ccc(C(=O)N(C)C)cn1)C2` [Example 606, (S)-5-(5-(dimethylcarbamoyl)pyridin-2-yl)-N-(3-fluoro-4-(4-methylpiperazine-1-carboxamido)benzyl)-1-isopropyl-7-methyl-4,5,6,7-tetrahydro-1H-pyrazolo[4,3-c]pyridine-3-carboxamide] had a pIC50 in assay [1] of 8.05. The pEC50 at STAT6 is 9.00.

`CC(C)n1nc(C(=O)NCc2ccc(NC(=O)N3CCCN(C)CC3)c(F)c2)c2c1[C@@H](C)CN(c1ccc(C(=O)N(C)C)cn1)C2` [Example 607, (S)-5-(5-(dimethylcarbamoyl)pyridin-2-yl)-N-(3-fluoro-4-(4-methyl-1,4-diazepane-1-carboxamido)benzyl)-1-isopropyl-7-methyl-4,5,6,7-tetrahydro-1H-pyrazolo[4,3-c]pyridine-3-carboxamide] showed a pIC50 in assay [1] of 7.68. Moreover, the pEC50 at STAT6 was 8.70.

As for `CC(C)n1nc(C(=O)NCc2ccc(NC(=O)N3CC4(CCN(C)CC4)C3)c(F)c2)c2c1[C@@H](C)CN(c1ccc(C(=O)N(C)C)cn1)C2` [Example 608, (S)-5-(5-(dimethylcarbamoyl)pyridin-2-yl)-N-(3-fluoro-4-(7-methyl-2,7-diazaspiro[3.5]nonane-2-carboxamido)benzyl)-1-isopropyl-7-methyl-4,5,6,7-tetrahydro-1H-pyrazolo[4,3-c]pyridine-3-carboxamide], the pIC50 in assay [1] was 7.80. The negative logarithm of the EC50 (pEC50) on STAT6 was 9.00.

In the case of `CC(C)n1nc(C(=O)NCc2ccc(NC(=O)N3CCN(C)CC3)cc2)c2c1[C@@H](C)CN(c1ccc(-n3ccccc3=O)cn1)C2` [Example 609, (S)-1-isopropyl-7-methyl-N-(4-(4-methylpiperazine-1-carboxamido)benzyl)-5-(2-oxo-2H-[1,3′-bipyridin]-6′-yl)-4,5,6,7-tetrahydro-1H-pyrazolo[4,3-c]pyridine-3-carboxamide], the pIC50 in assay [1] was 8.15. Besides, at STAT6, the pEC50 is 9.00.

As to `CC(C)n1nc(C(=O)NCc2ccc(NC(=O)N3CCN(C)CC3)c(F)c2)c2c1[C@@H](C)CN(c1ccc(-n3ccccc3=O)cn1)C2` [Example 610, (S)-N-(3-fluoro-4-(4-methylpiperazine-1-carboxamido)benzyl)-1-isopropyl-7-methyl-5-(2-oxo-2H-[1,3′-bipyridin]-6′-yl)-4,5,6,7-tetrahydro-1H-pyrazolo[4,3-c]pyridine-3-carboxamide], in assay [1], the pIC50 is 7.77. The negative logarithm of the EC50 (pEC50) on STAT6 was 8.70.

`CC(C)n1nc(C(=O)NCc2ccc(NC(=O)N3CCN(C)CC3)cc2)c2c1[C@@H](C)CN(c1ccc(C(=O)N3Cc4cccnc4C3)cn1)C2` [Example 611, (S)-5-(5-(6,7-dihydro-5H-pyrrolo[3,4-b]pyridine-6-carbonyl)pyridin-2-yl)-1-isopropyl-7-methyl-N-(4-(4-methylpiperazine-1-carboxamido)benzyl)-4,5,6,7-tetrahydro-1H-pyrazolo[4,3-c]pyridine-3-carboxamide] gave a negative-log IC50 (pIC50) in assay [1] of 8.30. For the same molecule, the negative logarithm of the EC50 (pEC50) at STAT6 is 9.70.

As to `CC(C)n1nc(C(=O)NCc2ccc(NC(=O)N3CCN(C)CC3)c(F)c2)c2c1[C@@H](C)CN(c1ccc(C(=O)N3Cc4cccnc4C3)cn1)C2` [Example 612, (S)-5-(5-(6,7-dihydro-5H-pyrrolo[3,4-b]pyridine-6-carbonyl)pyridin-2-yl)-N-(3-fluoro-4-(4-methylpiperazine-1-carboxamido)benzyl)-1-isopropyl-7-methyl-4,5,6,7-tetrahydro-1H-pyrazolo[4,3-c]pyridine-3-carboxamide], the pIC50 in assay [1] was 8.00. The pEC50 at STAT6 is 9.30.

In assay [1], `CC(C)n1nc(C(=O)NCc2ccc(NC(=O)N3CCN(C)CC3)cc2)c2c1[C@@H](C)CN(c1ccc(C(=O)N3Cc4cccnc4C3)cc1)C2` [Example 614, (S)-5-(4-(6,7-dihydro-5H-pyrrolo[3,4-b]pyridine-6-carbonyl)phenyl)-1-isopropyl-7-methyl-N-(4-(4-methylpiperazine-1-carboxamido)benzyl)-4,5,6,7-tetrahydro-1H-pyrazolo[4,3-c]pyridine-3-carboxamide] showed a pIC50 of 8.15. Moreover, the pEC50 on STAT6 was 9.40.

Take `CC(C)n1nc(C(=O)NCc2ccc(NC(=O)N3CCCN(C)CC3)cc2)c2c1[C@@H](C)CN(c1ccc(C(=O)N(C)C)cn1)C2` [Example 615, (S)-5-(5-(dimethylcarbamoyl)pyridin-2-yl)-1-isopropyl-7-methyl-N-(4-(4-methyl-1,4-diazepane-1-carboxamido)benzyl)-4,5,6,7-tetrahydro-1H-pyrazolo[4,3-c]pyridine-3-carboxamide]: the pIC50 in assay [1] is 7.89. Further, at STAT6, the pEC50 was 8.70.

`CC(C)n1nc(C(=O)NCc2ccc(NC(=O)N3CCC(N(C)C)CC3)cc2)c2c1[C@@H](C)CN(c1ccc(C(=O)N(C)C)cn1)C2` [Example 616, (S)-N-(4-(4-(dimethylamino)piperidine-1-carboxamido)benzyl)-5-(5-(dimethylcarbamoyl)pyridin-2-yl)-1-isopropyl-7-methyl-4,5,6,7-tetrahydro-1H-pyrazolo[4,3-c]pyridine-3-carboxamide] showed a pIC50 in assay [1] of 8.22. At STAT6, the pEC50 is 9.00.

In assay [1], `CC(C)n1nc(C(=O)NCc2ccc(C(=O)NCC3CCN(C)CC3)cc2)c2c1[C@@H](C)CN(c1ccc(C(=O)N(C)C)cc1)C2` [Example 617, (S)-5-(4-(dimethylcarbamoyl)phenyl)-1-isopropyl-7-methyl-N-(4-(((1-methylpiperidin-4-yl)methyl)carbamoyl)benzyl)-4,5,6,7-tetrahydro-1H-pyrazolo[4,3-c]pyridine-3-carboxamide] showed a negative-log IC50 (pIC50) of 6.30. For the same molecule, the pEC50 on STAT6 was 6.75.

Molecule `CC(C)n1nc(C(=O)NCc2ccc(C(=O)NCC3CCN(C)CC3)cc2)c2c1[C@@H](C)CN(c1ccc(C(=O)N(C)C)cn1)C2` [Example 618, (S)-5-(5-(dimethylcarbamoyl)pyridin-2-yl)-1-isopropyl-7-methyl-N-(4-(((1-methylpiperidin-4-yl)methyl)carbamoyl)benzyl)-4,5,6,7-tetrahydro-1H-pyrazolo[4,3-c]pyridine-3-carboxamide] showed a pIC50 in assay [1] of 6.21. At STAT6, the pEC50 is 6.90.

In the case of `CNC1CN(C(=O)Nc2ccc(CNC(=O)c3nn(C(C)C)c4c3CN(c3ccc(C(=O)N(C)C)cc3)C[C@@H]4C)cc2)C1` [Example 619, (S)-5-(4-(dimethylcarbamoyl)phenyl)-1-isopropyl-7-methyl-N-(4-(3-(methylamino)azetidine-1-carboxamido)benzyl)-4,5,6,7-tetrahydro-1H-pyrazolo[4,3-c]pyridine-3-carboxamide], the negative-log IC50 (pIC50) in assay [1] was 7.72. Besides, at STAT6, the pEC50 was 8.52.

In assay [1], `CC(C)n1nc(C(=O)NCc2ccc(NC(=O)N3CCC(C4CCNCC4)CC3)cc2)c2c1[C@@H](C)CN(c1ccc(C(=O)N(C)C)cc1)C2` [Example 620, (S)-N-(4-([4,4′-bipiperidine]-1-carboxamido)benzyl)-5-(4-(dimethylcarbamoyl)phenyl)-1-isopropyl-7-methyl-4,5,6,7-tetrahydro-1H-pyrazolo[4,3-c]pyridine-3-carboxamide] gave a negative logarithm of the IC50 (pIC50) of 8.10. Moreover, the pEC50 on STAT6 is 9.00.
